Measured values: the supplement of paper PMC4862054

Key:
Test in all cases: normalised viability (% of control), CellTiter-Blue; higher = more viable cells (about 100 = DMSO control)
Conditions in all cases: incubation time: 72 h
HDQ-P1 = tested on: HDQ-P1
Procedure: (§1)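 DSRT, CellTiter-Blue viability, 72 h incubation. Signal is normalised to DMSO and benzethonium chloride controls. Value is the normalised response at dose 7.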

CAL-51 = tested on: CAL-51
Procedure: as §1

MDA-MB-453 = tested on: MDA-MB-453
Procedure: as §1

DU-4475 = tested on: DU-4475
Procedure: as §1

CAL-85-1 = tested on: CAL-85-1
Procedure: as §1

CAL-148 = tested on: CAL-148
Procedure: as §1

Compound | normalised viability (HDQ-P1) [%] | normalised viability (CAL-51) [%] | normalised viability (MDA-MB-453) [%] | normalised viability (DU-4475) [%] | normalised viability (CAL-85-1) [%] | normalised viability (CAL-148) [%]
CN(C)/N=N/c1[nH]cnc1C(N)=O [Dacarbazine] (1000 nM) | 110 | 85.8 | 109 | 96.2 | 90 | 106
N[C@@H](CSC(c1ccccc1)(c1ccccc1)c1ccccc1)C(=O)O [S-trityl-L-cysteine] (4000 nM) | 86.5 | 85.1 | 94.3 | 103 | 98.3 | 117
Oc1nc(-c2ccc(C(F)(F)F)cc2)nc2c1CSCC2 [XAV-939] (1000 nM) | 103 | 93.2 | 90.3 | 108 | 81.8 | 101
CCC1(c2ccc(N)cc2)CCC(=O)NC1=O (stereo not given) [Aminoglutethimide] (1000 nM) | 79.3 | 91 | 88.8 | 86.1 | 95.2 | 113
CNCc1ccc(-c2[nH]c3cc(F)cc4c3c2CCNC4=O)cc1 [Rucaparib] (1000 nM) | 89.6 | 103 | 102 | 82.3 | 85.4 | 92.2
CO[C@H]1/C=C\C=C(/C)C(=O)NC2=CC(=O)C(NCCN(C)C)=C(C[C@@H](C)C[C@H](OC)[C@H](O)[C@@H](C)/C=C(\C)[C@@H]1OC(N)=O)C2=O [Alvespimycin] (100 nM) | 38 | 34.7 | 6.21 | 0.89 | 33.1 | 15.6
CN(N=O)C(=O)N[C@@H](C=O)[C@@H](O)[C@H](O)[C@H](O)CO [Streptozocin] (1000 nM) | 95.5 | 103 | 105 | 112 | 91.2 | 98.6
O=P1(NCCCl)OCCCN1CCCl (stereo not given) [Ifosfamide] (1000 nM) | 103 | 114 | 112 | 101 | 81.2 | 101
Clc1ccc(Nc2nnc(Cc3ccncc3)c3ccccc23)cc1 [Vatalanib] (1000 nM) | 98.6 | 101 | 91.6 | 97.8 | 92.5 | 83.4
Cc1ccc(C(=O)Nc2ccc(CN3CCN(C)CC3)c(C(F)(F)F)c2)cc1C#Cc1cnc2cccnn12 [Ponatinib] (100 nM) | 92.8 | 82.9 | 77.7 | 104 | 89.3 | 94.8
C=C(c1ccc(C(=O)O)cc1)c1cc2c(cc1C)C(C)(C)CCC2(C)C [Bexarotene] (1000 nM) | 76 | 80.6 | 86.5 | 116 | 84.5 | 96.6
Cn1c(Nc2ccc(C(F)(F)F)cc2)nc2cc(Oc3ccnc(-c4ncc(C(F)(F)F)[nH]4)c3)ccc21 [RAF265] (100 nM) | 74.6 | 86.1 | 83.7 | 104 | 80.5 | 101
C#Cc1cccc(Nc2ncnc3cc(OCCOC)c(OCCOC)cc23)c1 [Erlotinib] (1000 nM) | 71.6 | 92 | 91.4 | 94.8 | 62.4 | 63
COc1cc2nccc(Oc3ccc(NC(=O)C4(C(=O)Nc5ccc(F)cc5)CC4)cc3)c2cc1OC [Cabozantinib] (100 nM) | 85.5 | 102 | 95.3 | 91.8 | 79.6 | 107
C[C@]12CC[C@@H]3c4ccc(O)cc4C[C@@H](CCCCCCCCC[S+]([O-])CCCC(F)(F)C(F)(F)F)[C@H]3[C@@H]1CC[C@@H]2O (stereo not given in full) [Fulvestrant] (1000 nM) | 84.3 | 111 | 84.6 | 93.5 | 84.9 | 92.4
COc1cc([C@@H]2c3cc4c(cc3[C@@H](O[C@@H]3O[C@@H]5CO[C@@H](C)O[C@H]5[C@H](O)[C@H]3O)[C@H]3COC(=O)[C@H]23)OCO4)cc(OC)c1O [Etoposide] (1000 nM) | 88.8 | 35.4 | 93.4 | 12.3 | 90.8 | 63.4
C[C@@H](Oc1cc(-c2cnn(C3CCNCC3)c2)cnc1N)c1c(Cl)ccc(F)c1Cl [Crizotinib] (1000 nM) | 92.5 | 108 | 91.9 | 108 | 86.9 | 96.4
Cn1c(CCCC(=O)O)nc2cc(N(CCCl)CCCl)ccc21 [Bendamustine] (1000 nM) | 108 | 109 | 102 | 112 | 86.3 | 117
CN[C@@H]1C[C@H]2O[C@@](C)([C@@H]1OC)n1c3ccccc3c3c4c(c5c6ccccc6n2c5c31)C(=O)N[C@H]4O [UCN-01] (1000 nM) | 32.1 | 16.8 | 30.2 | 10.1 | 33.7 | 81.5
Cc1ccc(C(=O)N(CCCN)[C@@H](c2oc3cc(Cl)ccc3c(=O)c2Cc2ccccc2)C(C)C)cc1 (100 nM) | 72.5 | 34.7 | 25.4 | 43 | 30.1 | 18.9
Cc1ccc(-n2nc(C(C)(C)C)cc2NC(=O)Nc2ccc(OCCN3CCOCC3)c3ccccc23)cc1 [Doramapimod] (1000 nM) | 66.7 | 101 | 87.9 | 122 | 73.5 | 105
CC1(C)NC(=O)N(c2ccc([N+](=O)[O-])c(C(F)(F)F)c2)C1=O [Nilutamide] (1000 nM) | 123 | 99.7 | 108 | 102 | 94.2 | 108
N.N.[Cl][Pt][Cl] [Cisplatin] (1000 nM) | 108 | 104 | 103 | 110 | 86.4 | 112
O=C1CCC(N2C(=O)c3ccccc3C2=O)C(=O)N1 (stereo not given) [Thalidomide] (1000 nM) | 81.1 | 84.8 | 103 | 97 | 99.4 | 116
CCC1=C[C@@H]2CN(C1)Cc1c([nH]c3ccccc13)[C@@](C(=O)OC)(c1cc3c(cc1OC)N(C)[C@H]1[C@@](O)(C(=O)OC)[C@H](OC(C)=O)[C@]4(CC)C=CCN5CC[C@]31[C@@H]54)C2 [Vinorelbine] (1000 nM) | 38.6 | 19.7 | 28 | 29 | 37.5 | 21.1
